According to US10770169B2, “Method of providing a treatment to a subject based on a dynamic pathway map” (THE REGENTS OF THE UNIVERSITY OF CALIFORNIA, priority 2010, dated 2020):
Like-named read-outs stand apart in the source and are kept apart here.

Experiments:
[1] = tested on: luminal, basal, claudin-low and ERBB2AMP breast cancer cell lines; assay: Associations of clinically relevant subtypes and response (non-parametric ANOVA or t-test on GI50 ranks); type: cell-based, human
In short: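 GI50 values were compared between cell-line subtype groups by non-parametric ANOVA or t-test on ranks. P-values from three test sets were combined and FDR-corrected. Significant three-group effects were followed by post-hoc comparison of each group against all others, and FDR p<0.20 counted as significant.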

[2] = tested on: panel of 55 breast cancer cell lines; assay: Cell growth inhibition assay (Cell Titer Glo, 72 h, 9 doses; GI50, TGI, LC50); type: cell-based, human; conditions: Homo sapiens, read-out: GI50 (converted)

CC(=O)O[C@@]12CO[C@@H]1C[C@H](O)[C@@]1(C)C(=O)[C@H](O)C3=C(C)[C@@H](OC(=O)[C@H](O)[C@@H](NC(=O)OC(C)(C)C)c4ccccc4)C[C@@](O)([C@@H](OC(=O)c4ccccc4)[C@H]21)C3(C)C [Docetaxel]
subtype-specific response (sensitivity by transcriptional subtype) ([1]; GI50 across subtypes): preferential activity in basal and/or claudin-low cell lines | Subtype specificity ([1]; Table 6, most sensitive subtype, FDR p<0.20): Basal | GI50 ([2]; 600MPE cell line, censored GI50 values): 97.7 nM | GI50 ([2]; AU565, AU565 cell line, censored GI50 values): 5.25 nM | GI50 ([2]; AU565, cell line AU565): 5.25 nM | GI50 ([2]; BT-474, BT474 cell line, censored GI50 values): 6.31 nM | GI50 ([2]; BT-474, cell line BT474): 6.31 nM | GI50 ([2]; BT-483, BT483 cell line, censored GI50 values): 23.4 nM | GI50 ([2]; BT-483, cell line BT483): 23.4 nM | GI50 ([2]; CAMA-1, CAMA1 cell line, censored GI50 values): 5.62 nM | GI50 ([2]; CAMA-1, cell line CAMA1): 5.62 nM | GI50 ([2]; HCC38, HCC38 cell line, censored GI50 values): 2.04 nM | GI50 ([2]; HCC38, cell line HCC38): 2.04 nM | GI50 ([2]; HCC70, HCC70 cell line, censored GI50 values): 5.13 nM | GI50 ([2]; HCC70, cell line HCC70): 5.13 nM | GI50 ([2]; HCC202, HCC202 cell line, censored GI50 values): 3.72 nM | GI50 ([2]; HCC202, cell line HCC202): 3.72 nM | GI50 ([2]; HCC1143, HCC1143 cell line, censored GI50 values): 11 nM | GI50 ([2]; HCC1143, cell line HCC1143): 11 nM | GI50 ([2]; HCC1187, HCC1187 cell line, censored GI50 values): 2.51 nM | GI50 ([2]; HCC1187, cell line HCC1187): 2.51 nM | GI50 ([2]; HCC1395, HCC1395 cell line, censored GI50 values): 5.62 nM | GI50 ([2]; HCC1395, cell line HCC1395): 5.62 nM | GI50 ([2]; HCC1419, HCC1419 cell line, censored GI50 values): 16.6 nM | GI50 ([2]; HCC1419, cell line HCC1419): 16.6 nM | GI50 ([2]; HCC1428, HCC1428 cell line, censored GI50 values): 5010 nM | GI50 ([2]; HCC1428, cell line HCC1428): 5010 nM | GI50 ([2]; HCC1500, HCC1500 cell line, censored GI50 values): 2.75 nM | GI50 ([2]; HCC1500, cell line HCC1500): 2.75 nM | GI50 ([2]; HCC1806, HCC1806 cell line, censored GI50 values): 2.57 nM | GI50 ([2]; HCC1806, cell line HCC1806): 2.57 nM | GI50 ([2]; HCC1954, HCC1954 cell line, censored GI50 values): 1.66 nM | GI50 ([2]; HCC1954, cell line HCC1954): 1.66 nM | GI50 ([2]; HCC2185 cell line, censored GI50 values): 3.02 nM | GI50 ([2]; HCC3153 cell line, censored GI50 values): 9.77 nM | GI50 ([2]; LY2 cell line, censored GI50 values): 4.27 nM | GI50 ([2]; MCF7, MCF7 cell line, censored GI50 values): 12.3 nM | GI50 ([2]; MCF7, cell line MCF7): 12.3 nM | GI50 ([2]; MDA-MB-134-VI, MDAMB134VI cell line, censored GI50 values): 23.4 nM | GI50 ([2]; MDA-MB-175-VII, MDAMB175VII cell line, censored GI50 values): 15.8 nM | GI50 ([2]; MDA-MB-231, MDAMB231 cell line, censored GI50 values): 2.82 nM | GI50 ([2]; MDA-MB-231, cell line MDAMB231): 2.82 nM | GI50 ([2]; MDA-MB-361, MDAMB361 cell line, censored GI50 values): 5.62 nM | GI50 ([2]; MDA-MB-361, cell line MDAMB361): 5.62 nM | GI50 ([2]; MDA-MB-415, MDAMB415 cell line, censored GI50 values): 2.88 nM | GI50 ([2]; MDA-MB-415, cell line MDAMB415): 2.88 nM | GI50 ([2]; MDA-MB-436, MDAMB436 cell line, censored GI50 values): 17 nM | GI50 ([2]; MDA-MB-436, cell line MDAMB436): 17 nM | GI50 ([2]; MDA-MB-453, MDAMB453 cell line, censored GI50 values): 4.37 nM | GI50 ([2]; MDA-MB-453, cell line MDAMB453): 4.37 nM | GI50 ([2]; MDA-MB-468, MDAMB468 cell line, censored GI50 values): 2.88 nM | GI50 ([2]; MDA-MB-468, cell line MDAMB468): 2.88 nM | GI50 ([2]; SK-BR-3, SKBR3 cell line, censored GI50 values): 7.59 nM | GI50 ([2]; SK-BR-3, cell line SKBR3): 7.59 nM | GI50 ([2]; SUM52PE, SUM52PE cell line, censored GI50 values): 1.82 nM | GI50 ([2]; SUM52PE, cell line SUM52PE): 1.82 nM | GI50 ([2]; SUM149PT, SUM149PT cell line, censored GI50 values): 1.74 nM | GI50 ([2]; SUM149PT, cell line SUM149PT): 1.74 nM | GI50 ([2]; SUM185PE, SUM185PE cell line, censored GI50 values): 5010 nM | GI50 ([2]; SUM185PE, cell line SUM185PE): 5010 nM | GI50 ([2]; SUM1315MO2, SUM1315MO2 cell line, censored GI50 values): 2.95 nM | GI50 ([2]; SUM-159-PT, SUM159PT cell line, censored GI50 values): 4.57 nM | GI50 ([2]; SUM-159-PT, cell line SUM159PT): 4.57 nM | GI50 ([2]; UACC-812, UACC812 cell line, censored GI50 values): 3.24 nM | GI50 ([2]; UACC-812, cell line UACC812): 3.24 nM | GI50 ([2]; UACC-893, UACC893 cell line, censored GI50 values): 11.5 nM | GI50 ([2]; UACC-893, cell line UACC893): 11.5 nM | GI50 ([2]; ZR-75-1, ZR751 cell line, censored GI50 values): 28.2 nM | GI50 ([2]; ZR-75-1, cell line ZR751): 28.2 nM | GI50 ([2]; ZR-75-30, ZR7530 cell line, censored GI50 values): 3.98 nM | GI50 ([2]; ZR-75-30, cell line ZR7530): 3.98 nM | GI50 ([2]; ZR-75B, ZR75B cell line, censored GI50 values): 15.5 nM | GI50 ([2]; ZR-75B, cell line ZR75B): 15.5 nM | GI50 ([2]; cell line 600MPE): 97.7 nM | GI50 ([2]; cell line HCC2185): 3.02 nM | GI50 ([2]; cell line HCC3153): 9.77 nM | GI50 ([2]; cell line LY2): 4.27 nM | GI50 ([2]; cell line MDAMB134V): 23.4 nM | GI50 ([2]; cell line MDAMB175V): 15.8 nM | GI50 ([2]; cell line SUM1315MO): 2.95 nM
